The values below come from US20250388597A1, “BIFUNCTIONAL PHOTOCROSSLINKING PROBES FOR COVALENT CAPTURE OF PROTEIN-NUCLEIC ACID COMPLEXES IN CELLS” (UNIVERSITY OF SOUTHERN CALIFORNIA, priority 2022, published 2025).

The subject of one test is GM12878 cell lines. Kind of test: Crosslinking in suspension GM12878 cell lines, electrophoresis after sonication. The class given is cell-based. The conditions noted are these: compared to the no-probe or no-UV controls; FIG. 5F. The text has this:
For this, we tested the prototype BFPX probe 4AMT-LC-SDA in the suspension GM12878 cell lines.

Another test concerns the target T1, NFAT1/DNA complex (Homo sapiens, UniProt Q13469).
T1 construct: human NFAT1 protein (residue 399-676, NFAT1-DBD)
T1 sequence (Q13469 399-676): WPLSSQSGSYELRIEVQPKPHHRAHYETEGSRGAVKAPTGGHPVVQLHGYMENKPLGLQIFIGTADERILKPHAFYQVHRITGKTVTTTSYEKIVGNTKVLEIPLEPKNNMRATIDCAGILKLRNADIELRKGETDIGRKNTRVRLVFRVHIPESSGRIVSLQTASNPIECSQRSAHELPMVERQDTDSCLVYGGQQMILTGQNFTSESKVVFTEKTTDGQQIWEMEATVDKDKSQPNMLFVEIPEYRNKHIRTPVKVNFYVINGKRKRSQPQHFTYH
The experiment in a line: In vitro photo-crosslinking of assembled NFAT1/DNA complex, denaturing SDS gel. In kind it is biochemical. As for the experimental part:
The probe binding and UV crosslinking were carried out as described in FIG. 5G and FIG. 7. The crosslinked complexes (lane 3 and lane 6) were further treated with DTT (100 mM, heat 50 degree C. for 30 min). The reaction mixtures were run on SDS gel and visualized by FAM fluorescence for DNA (top) and by Coomassie blue stain for protein (bottom) as described in FIG. 7. FIG. 7 depicts denaturing SDS gel analysis of covalent capture of in vitro assembled MEF2/DNA and NFAT1/DNA complexes by the BFPX probe, SPB-AAD. […] The protein/DNA complexes are incubated at room temperature for 30 min, and treated with various combination of BFPX probe (SPB-AAD) and UV illumination as described in FIG. 5G. […] The reaction mixtures were added SDS loading dye (2% SDS), boil for 10 min, and run on SDS gel (Bio-Rad Any Kd gradient gel). The same gel was visualized by FAM fluorescence for DNA (top) and by Coomassie blue stain for protein (bottom). FIG. 8C depicts denaturing SDS gel analysis of covalent capture of in vitro assembled MEF2/DNA and NFAT1/DNA complexes by the BFPX probe, SPB-PEG3-AAD. […] The reaction mixtures were run on SDS gel and visualized by FAM fluorescence for DNA (top) and by Coomassie blue stain for protein (bottom) as described in FIG. 7. […] Typically protein and DNA are mixed to bind at room temperature for 30 min, followed by addition of BFPX probes for an additional 15 min and then UV illumination. In the case of FA treatment, the reaction time is 10 min at room temperature and then quenched by 250 mM glycine. […] The UV illumination (as indicated by a positive sign) was carried out using a LED Chip (21.4 mm×21.4 mm, 365-370 nm, 30 Watt, sample distance 2 cm, exposure time 2-15 min at 4 degree C., here the exposure time is 15 min). […] The small amount of single stranded DNA is due to incomplete annealing. The higher smearing bands are most likely non-specific protein complexes. Neither of these experimental imperfections affected the main conclusion of this experiment because the double stranded-DNA bands and the specific NFAT-DNA complex bands (the middle sharp bands) are well defined and can be monitored without the interference of the other bands. […] The gel was visualized by Cy5 fluorescence for DNA. FIG. 12E depicts further characterization of BFPX crosslinking of NFAT1/DNA complexes using different DNA substrates and staining techniques. Two unlabeled DNA substrates containing a core NFAT-binding site and different flanking bases and sequence lengths ([…] ID NO: 4), 21 mer, c2: [NT] ID NO: 5), 16 mer) were used to bind the NFAT1-DBD as described in FIG. 12C. […] The reactions were then analyzed by SDS PAGE under denaturing condition as described in FIG. 12D. Because the DNA is unlabeled, the gel was stained using either cyanine-based dye (SYBR Safe) or Coomassie Blue stain (CB). […] The different size of the NFAT-c1DNA complexes (lane 2) and NFAT-c2DNA complexes (lane 4) was resolved by loading reactions of lane 2 (2a, 2b and 2c) and lane 4 (4a, 4b and 4c) as triplicates side-by-side on the same gel (lower panel) using either SYBR and CB stain. FIG. 12F depicts time course of BFPX crosslinking of NFAT1/DNA complexes. […] The reactions at different time points were then analyzed on SDS gel as described in FIG. 12D. […] When the UV exposure time is longer than 5 min, a significant amount of crosslinked NFAT-DNA complex can be formed with UV illumination without SPB-AAD.

The target of the next test is T2, DNA binding by NFAT1 (Homo sapiens, UniProt Q13469).
T2 construct: human NFAT1 protein (residue 399-676, NFAT1-DBD)
T2 sequence (Q13469 399-676): T1 sequence (Q13469 399-676)
Kind of test: Native EMSA of the effect on DNA binding by NFAT1. The class given is biochemical.

The target of the next test is T3, MEF2A/DNA complex (Homo sapiens, UniProt Q02078).
T3 construct: human MEF2A DBD (residues 2-95); made in house
T3 sequence (Q02078 2-95): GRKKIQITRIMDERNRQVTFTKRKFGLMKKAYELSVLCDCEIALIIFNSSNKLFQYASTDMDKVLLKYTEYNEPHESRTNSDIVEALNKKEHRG
The experiment in a line: In vitro photo-crosslinking of assembled MEF2/DNA complex, read on denaturing SDS/urea gel or agarose gel. The class given is biochemical. To be noted: for selectivity for DNA binding protein versus non-DNA binding protein BSA: BSA under the same condition; for formation of covalent MEF2/DNA crosslinked complex: probe + UV, denaturing gel. The text has this:
In vitro assays have confirmed the success and the efficiency of the demo probe (AMT-LC-SDA) in crosslinking double strand DNA of various contents and DNA-binding protein human myocyte enhancer factor 2A (MEF2A) (1-95 aa) (FIG. 5C-FIG. 5E). The solid crosslinking is confirmed for the probe with UV photo crosslinking conditions by denaturing or digestive approaches such as running with 8.3 M urea gel, SDS gel, combined with sample with overnight digestion of proteinase K at 65 Celsius and denatured at high temperature of 95 Celsius with SDS loading dye. […] Under these harsh evaluation conditions, the protein got digested on the crosslinking complex thoroughly, yet the remaining crosslinked amino acids residuals still have made the DNA to be in a larger size and shifted clearly compared to other controls, which is indicated by the bold shaped arrow. Agarose gel was also used for its bigger pore size to estimate the crosslinking efficiency (UV 2 hrs), estimated by the amount of the left free DNA, our probe has reached around 30-60% efficiency (FIG. 5E), which is much higher than the UV-initiated protein DNA crosslinking without the use of a probe (10-20%) as reported in Nature Communications, volume 11, Article number: 3019 (2020). […] This further supports the idea of applying this probe for replacement of formaldehyde, it crosslinks the protein only within the proximity of nucleic acids, thereby largely reducing the random protein-protein crosslinking noise and helps to preserve the native state of protein epitopes.
The BFPX probe 4AMT-LC-SDA was synthesized with good yield by the NHS-amine chemistry using psoralen and diazirine derivatives (FIG. 5A, FIG. 5B). To test its photo crosslinking ability, human transcription factor MEF2A (the MADS-box/MEF2 domain) and double strand DNA containing a MEF2 binding site were used. We first used electrophoresis mobility shift assay (EMSA) to validate the activity of the purified recombinant MEF2A DNA-binding domain. After finding out the optimal protein to DNA ratio, the in vitro assembled MEF2/DNA complex was then subject to photocrosslinking in the presence or absence of the 4AMT-LC-SDA probe with or without UV illumination. Multiple other control experiments were carried out in parallel to test the specificity of photocrosslinking between the DNA and MEF2. Specifically, parameters such as protein/DNA amounts (1:[…]), ratio, UV time (10 m to 4 hrs), wavelength (320 to 360 nm), LV source (mercury long lamp, LED) and their distance to the reaction mixture have been optimized along the course. The MEF2 Protein and DNA were incubated first to mimic an in vivo binding mode and stoichiometry, and then the mixture was incubated with our 4AMT-LC-SDA probe to undergo UV illumination. The results were evaluated by running denaturing gels (SDS in FIG. 5D, or Urea in FIG. 5C) against the high temperature denatured reaction mixtures and checking the respective protein (silver stain) or DNA (FAM label) signals. To further rule out any other possible false positiveness during loading, proteinase K digestion was applied to all the samples including the negative controls with SDS at 65 degrees.

Entries after “also recorded” stand apart in the source; their conditions may differ.

Description for DNA binding by NFAT1: All binding reactions contain 10 μM 27 mer dsDNA (5′6-FAM labeled) with a NFAT-binding site, and various combinations of NFAT1 protein (14 μM), FA (1% v/v), 4AMT-LC-SDA (20 μM), with or without UV illumination (365 nm, LED, 30 Watt, sample distance 2 cm, exposure time 15 min at 4 degree C.). 10 μl of the binding reaction is run on a 10% PAGE 0.5×TBE gel. The same gel was visualized by FAM fluorescence for DNA (top) and by Coomassie blue stain for protein (bottom). The higher smearing bands in lane 3, 8, 9, and 10 are most likely non-specific protein complexes often seen when an excessive amount of protein is used to ensure all DNA is bound.
The binding reactions were performed in a buffer of 20 mM Hepes pH 7.6, 150 mM NaCl, 1 mM DTT, 12% glycerol. Typically protein and DNA are mixed to bind at room temperature for 30 min, followed by addition of BFPX probes for an additional 15 min and then UV illumination. In the case of FA treatment, the reaction time is 10 min at room temperature and then quenched by 250 mM glycine. When included (as indicated by a positive sign), the binding reaction contains 10 μM 27 mer dsDNA (Cy5-labeled) with a NFAT-binding site (the antigen receptor response element 2, ARRE2, from the IL-2 promoter, 5′-Cy5-[sequence]-3′ (SEQ ID NO: 2), the complementary strand is not labeled), 24 μM of the DNA binding domain (DBD) of human NFAT1 protein (residue 399-676, NFAT1-DBD). The UV illumination (as indicated by a positive sign) was carried out using a LED Chip (21.4 mm×21.4 mm, 365-370 nm, 30 Watt, sample distance 2 cm, exposure time 2-15 min at 4 degree C., here the exposure time is 15 min). Half of the binding reaction (7.5 μl) was run on a 10% PAGE 0.5×TBE gel and visualized by Cy5 fluorescence on DNA. The small amount of single stranded DNA is due to incomplete annealing. The higher smearing bands are most likely non-specific protein complexes. Neither of these experimental imperfections affected the main conclusion of this experiment because the double stranded-DNA bands and the specific NFAT-DNA complex bands (the middle sharp bands) are well defined and can be monitored without the interference of the other bands.
The presence of both DNA and protein in the same shifted band can be checked by the FAM fluorescence signal (top) and Coomassie stain (bottom), respectively (free NFAT is positively charged and not observable under the EMSA condition).

Consider `Cc1oc2c(C)c3oc(=O)cc(C)c3cc2c1CNC(=O)CCCCCNC(=O)CCC1(C)N=N1` [4AMT-LC-SDA], for which the “crosslink effect in cells” value with GM12878 cell lines is listed as “good crosslink effect”. In addition, on NFAT1/DNA complex (25 μM probe, DTT 100 mM, 50 degree C., 30 min, FIG. 5H), the “effect of DTT treatment on the crosslinked NFAT-DNA complex” value is recorded as “little effect”. Further, on NFAT1/DNA complex (probe + UV 365 nm, 2% SDS, boil 10 min), the “formation of covalent NFAT1/DNA crosslinked complex stable under denaturing SDS-PAGE” value is “highly efficient crosslinking; also recorded: crosslinked NFAT to its DNA substrate efficiently”. In addition, the “effect on the DNA binding by NFAT1” value at DNA binding by NFAT1 (FIG. 5G, FA 1% v/v, 4AMT-LC-SDA 20 μM with or without UV 365 nm) was “did not affect”. At DNA binding by NFAT1 (with and without UV365, data not shown), the “effect on NFAT1 protein” value is listed as “did not affect NFAT1 protein”. Moreover, on MEF2A/DNA complex, the “selectivity for DNA binding protein versus non-DNA binding protein BSA” value is reported as “did not show any signs of forming crosslink with the DNA”; the “formation of covalent MEF2/DNA crosslinked complex” value was “successful photo crosslink complex between protein and DNA; also recorded: highly efficient crosslinking”. In addition, on MEF2A/DNA complex (listed as AMT-LC-SDA), the “selectivity for DNA binding protein versus non-DNA binding protein BSA” value is recorded as “only MEF2A sample shows consumption of DNA substrate by crosslinking”; the “formation of covalent MEF2/DNA crosslinked complex” value was “the crosslinking of protein and nucleic acids takes place”. The “photo crosslinking efficiency of the MEF2-DNA complex” value at MEF2A/DNA complex (agarose gel, comparison of band intensities) is given as “around 50%”. For the same compound, at MEF2A/DNA complex (agarose gel, UV 2 hrs, dsDNA + MEF2A (1-95 aa)), the “crosslinking efficiency, estimated by the amount of the left free DNA” value is recorded as 30-60%.
